From patent US20250101019A1 (Insilico Medicine IP Limited, priority 2022, published 2025)

Key:
ENPP1 [1] = biological target: T1, ENPP1 (Homo sapiens (Human), UniProt P22413); assay: ATP-Glo enzymatic assay (ATP substrate, AMP-Glo readout); type: biochemical; conditions: 25° C. for 60 min, 50 mM Tris pH 8.8
Description: (§1) Example A: Enzymatic Assay
(§2) • 1. Diluted compounds in DMSO by hand for 11 points, 3 folds dilution. Then transferred 0.02 μL compounds to 384 assay plate by ECHO. • 2. Added 2 μL specified concentration of ENPP1 to 384 assay plate. Centrifuged 1000 RPM for 1 min. • 3. Added 2 μL specified concentration of ATP to the assay plate. Centrifuged 1000 RPM for 1 min. • 4. Incubated at 25° C. for 60 min. • 5. Added 4 μL AMP-Glo Reagent to the assay plates. • 6. Centrifuged 1000 RPM for 1 min, incubate at 25° C. for 1 hours. • 7. Added 8 μL Kinase Detection Reagent to the assay plates. • 8. Centrifuged 1000 RPM for 1 min, incubated at 25° C. for 1 hours. The final assay reaction mixture contained a buffer of 50 mM Tris pH 8.8, 250 mM NaCl and 0.1% BSA • 9. Read on Envision for US LUM as RLU. • 10. Analyzed the raw data using the equation (V. Data analysis). cGAMP-Glo Assay: • 1. Diluted compounds in DMSO by hand for 11 points, 3 folds dilution. Then transferred 0.02 μL compounds to 384 assay plate by ECHO. • 2. Added 2 μL specified concentration of ENPP1 to 384 assay plate, centrifuged 1000 RPM for 1 min. • 3. Added 2 μL specified concentration of 2′3′-cGAMP to the assay plate, centrifuged 1000 RPM for 1 min. • 4. Incubated at 25° C. for 60 min. • 5. Added 4 μL AMP-Glo Reagent to the assay plates. • 6. Centrifuged 1000 RPM for 1 min, incubated at 25° C. for 1 hours. • 7. Added 8 μL Kinase Detection Reagent to the assay plates. • 8. Centrifuged 1000 RPM for 1 min, incubate at 25° C. for 1 hours. The final assay reaction mixture contained a buffer of 50 mM Tris pH 8.8, 250 mM NaCl and 0.1% BSA • 9. Read on Envision for US LUM as RLU. • 10. Analyzed the raw data using the equation (V. Data analysis).

ENPP1 [2] = biological target: T1, ENPP1; assay: cGAMP-Glo enzymatic assay (2′3′-cGAMP substrate, AMP-Glo readout); type: biochemical; conditions: substrate 2′3′-cGAMP; 25° C. for 60 min; 50 mM Tris pH 8.8
Description: as §1, §2

T1 sequence (P22413 whole entry, species assumed): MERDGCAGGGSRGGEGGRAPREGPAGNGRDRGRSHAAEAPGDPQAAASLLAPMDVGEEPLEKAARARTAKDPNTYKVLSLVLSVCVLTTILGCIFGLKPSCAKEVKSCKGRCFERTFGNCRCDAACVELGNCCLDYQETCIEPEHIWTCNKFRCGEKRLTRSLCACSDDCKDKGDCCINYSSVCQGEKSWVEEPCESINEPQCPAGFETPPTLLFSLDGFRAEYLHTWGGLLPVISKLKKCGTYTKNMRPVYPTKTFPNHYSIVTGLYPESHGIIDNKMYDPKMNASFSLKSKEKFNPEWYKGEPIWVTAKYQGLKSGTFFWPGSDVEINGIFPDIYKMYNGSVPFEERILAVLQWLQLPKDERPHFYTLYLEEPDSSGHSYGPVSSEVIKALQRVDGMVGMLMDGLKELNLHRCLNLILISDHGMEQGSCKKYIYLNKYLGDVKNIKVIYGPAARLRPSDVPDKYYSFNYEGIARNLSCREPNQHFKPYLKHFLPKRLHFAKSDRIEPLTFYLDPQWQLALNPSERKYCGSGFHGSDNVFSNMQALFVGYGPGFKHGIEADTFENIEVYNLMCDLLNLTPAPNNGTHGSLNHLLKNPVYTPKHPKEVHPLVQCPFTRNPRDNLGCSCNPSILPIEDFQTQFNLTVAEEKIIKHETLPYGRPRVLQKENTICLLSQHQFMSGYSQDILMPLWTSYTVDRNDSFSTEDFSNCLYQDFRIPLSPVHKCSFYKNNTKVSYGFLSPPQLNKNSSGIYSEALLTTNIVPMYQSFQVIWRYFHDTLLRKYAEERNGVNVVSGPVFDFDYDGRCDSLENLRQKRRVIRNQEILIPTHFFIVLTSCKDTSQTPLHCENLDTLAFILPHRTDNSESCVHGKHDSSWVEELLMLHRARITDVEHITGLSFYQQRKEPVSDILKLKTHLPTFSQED

IC50 (ENPP1 [1]) [nM]	IC50 (ENPP1 [2]) [nM]	Structure (SMILES)
< 1	< 1	COc1ncc2c(c1-c1ccccc1)n(Cc1ccc(S(N)(=O)=O)cc1)c(=O)n2C [Example 19, 4-[(6-methoxy-3-methyl-2-oxo-7-phenylimidazo[5,4-c]pyridin-1-yl)methyl]benzene-1-sulfonamide]
< 1	< 1	Cc1ncc2nc(C3CC3)n(Cc3c(F)cc(S(N)(=O)=O)cc3F)c2c1-c1ccccc1 [Example 39, 4-((2-cyclopropyl-6-methyl-7-phenyl-1H-imidazo[4,5-c]pyridin-1-yl)methyl)-3,5-difluorobenzenesulfonamide]
< 1	< 1	Cc1ncc2nc(C(F)(F)F)n(Cc3c(F)cc(S(N)(=O)=O)cc3F)c2c1-c1ccccc1 [Example 34, 3,5-difluoro-4-((6-methyl-7-phenyl-2-(trifluoromethyl)-1H-imidazo[4,5-c]pyridin-1-yl)methyl)benzenesulfonamide]
< 1	< 1	Cc1ncc2nc(C)n(Cc3ccc(S(N)(=O)=O)cn3)c2c1-c1ccccc1 [Example 65, 6-((2,6-dimethyl-7-phenyl-1H-imidazo[4,5-c]pyridin-1-yl)methyl)pyridine-3-sulfonamide]
< 1	< 1	Cc1ncc2nc(CC(F)(F)F)n(Cc3c(F)cc(S(N)(=O)=O)cc3F)c2c1-c1ccccc1 [Example 50, 3,5-difluoro-4-((6-methyl-7-phenyl-2-(2,2,2-trifluoroethyl)-1H-imidazo[4,5-c]pyridin-1-yl)methyl)benzenesulfonamide]
100 to 1000	10 to 100	Cc1ncc2c(C)cn(Cc3c(F)cc(S(N)(=O)=O)cc3F)c2c1-c1ccn(C(F)(F)F)n1 [Example 18, 4-((3,6-dimethyl-7-(1-(trifluoromethyl)-1H-pyrazol-3-yl)-1H-pyrrolo[3,2-c]pyridin-1-yl)methyl)-3,5-difluorobenzenesulfonamide]
< 1	< 1	[2H]C([2H])([2H])Oc1ncc2nc(C)n(Cc3ccc(S(N)(=O)=O)cc3)c2c1-c1ccccc1 [Example 84, 4-((6-(methoxy-d3)-2-methyl-7-phenyl-1H-imidazo[4,5-c]pyridin-1-yl)methyl)benzenesulfonamide]
10 to 100	10 to 100	Cc1ccccc1-c1c(C)ncc2ncn(Cc3c(F)cc(S(N)(=O)=O)cc3F)c12 [Example 28, 3,5-difluoro-4-((6-methyl-7-(o-tolyl)-1H-imidazo[4,5-c]pyridin-1-yl)methyl)benzene sulfonamide]
< 1	< 1	Cc1ncc2nc(CC3CC3)n(Cc3c(F)cc(S(N)(=O)=O)cc3F)c2c1-c1ccccc1 [Example 51, 4-((2-(cyclopropylmethyl)-6-methyl-7-phenyl-1H-imidazo[4,5-c]pyridin-1-yl)methyl)-3,5-difluorobenzenesulfonamide]
< 1	< 1	Cc1ncc2c(c1-c1ccccc1)n(Cc1ccc(S(N)(=O)=O)cn1)c(=O)n2C [Example 81, 6-((3,6-dimethyl-2-oxo-7-phenyl-2,3-dihydro-1H-imidazo[4,5-c]pyridin-1-yl)methyl)pyridine-3-sulfonamide]
< 1	< 1	Cc1ncc2ccn(Cc3ccc(S(N)(=O)=O)cc3)c2c1-c1ccccc1 [Example 15, 4-((6-methyl-7-phenyl-1H-pyrrolo[3,2-c]pyridin-1-yl)methyl)benzene sulfonamide]
1 to 10	< 1	COc1ncc2c(C)cn(Cc3c(F)cc(S(N)(=O)=O)cc3F)c2c1-c1ccn(C)n1 [Example 4, 3,5-difluoro-4-((6-methoxy-3-methyl-7-(1-methyl-1H-pyrazol-3-yl)-1H-pyrrolo[3,2-c]pyridin-1-yl)methyl)benzene sulfonamide]
< 1	< 1	Cc1ncc2nc(C3CC3)n(Cc3ccc(S(N)(=O)=O)cn3)c2c1-c1ccccc1 [Example 53, 6-((2-cyclopropyl-6-methyl-7-phenyl-1H-imidazo[4,5-c]pyridin-1-yl)methyl)pyridine-3-sulfonamide]
100 to 1000	100 to 1000	COc1ncc2ccn(Cc3ccc(S(N)(=O)=O)cc3)c2c1-c1cnn(C(F)(F)F)c1 [Example 11, 4-((6-methoxy-7-(1-(trifluoromethyl)-1H-pyrazol-4-yl)-1H-pyrrolo[3,2-c]pyridin-1-yl)methyl)benzenesulfonamide]
< 1	< 1	COc1ncc2c(c1-c1ccccc1)n(Cc1c(F)cc(S(N)(=O)=O)cc1F)c(=O)n2C [Example 56, 3,5-difluoro-4-((6-methoxy-3-methyl-2-oxo-7-phenyl-2,3-dihydro-1H-imidazo[4,5-c]pyridin-1-yl)methyl)benzenesulfonamide]
< 1	< 1	COc1ncc2c(C)cn(Cc3ccc(S(N)(=O)=O)cc3)c2c1-c1ccccc1 [Example 10, 4-((6-methoxy-3-methyl-7-phenyl-1H-pyrrolo[3,2-c]pyridin-1-yl)methyl)benzene sulfonamide]
< 1	< 1	Cc1ncc2c(C)cn(Cc3ccc(S(N)(=O)=O)cc3)c2c1-c1ccccc1 [Example 16, 4-((3,6-dimethyl-7-phenyl-1H-pyrrolo[3,2-c]pyridin-1-yl)methyl)benzene sulfonamide]
< 1	< 1	Cc1nc2cncc(-c3ccccc3)c2n1Cc1c(F)cc(S(N)(=O)=O)cc1F [Example 43, 3,5-difluoro-4-((2-methyl-7-phenyl-1H-imidazo[4,5-c]pyridin-1-yl)methyl)benzenesulfonamide]
< 1	< 1	Cc1cc(Cn2c(C3CC3)nc3cnc(C)c(-c4ccccc4)c32)ccc1S(N)(=O)=O [Example 55, 4-((2-cyclopropyl-6-methyl-7-phenyl-1H-imidazo[4,5-c]pyridin-1-yl)methyl)-2-methylbenzenesulfonamide]
< 1	< 1	Cc1ncc2c(C)cn(Cc3c(F)cc(S(N)(=O)=O)cc3F)c2c1-c1ccccc1 [Example 14, 4-[(3,6-dimethyl-7-phenylpyrrolo[3,2-c]pyridin-1-yl)methyl]-3,5-difluorobenzene-1-sulfonamide]
< 1	< 1	[2H]C([2H])([2H])Oc1ncc2nc(C(F)F)n(Cc3ncc(S(N)(=O)=O)cc3F)c2c1-c1ccccc1 [Example 86, 6-((2-(difluoromethyl)-6-(methoxy-d3)-7-phenyl-1H-imidazo[4,5-c]pyridin-1-yl)methyl)-5-fluoropyridine-3-sulfonamide]
< 1	< 1	Cc1ncc2nc(C(F)F)n(Cc3ncc(S(N)(=O)=O)cc3F)c2c1-c1ccccc1 [Example 72, 6-((2-(difluoromethyl)-6-methyl-7-phenyl-1H-imidazo[4,5-c]pyridin-1-yl)methyl)-5-fluoropyridine-3-sulfonamide]
1 to 10	1 to 10	COc1ncc2ccn(Cc3c(F)cc(S(N)(=O)=O)cc3F)c2c1-c1ccn(C)n1 [Example 7, 3,5-difluoro-4-((6-methoxy-7-(1-methyl-1H-pyrazol-3-yl)-1H-pyrrolo[3,2-c]pyridin-1-yl)methyl)benzenesulfonamide]
< 1	< 1	[2H]C([2H])([2H])c1nc2cnc(C)c(-c3ccccc3)c2n1Cc1c(F)cc(S(N)(=O)=O)cc1F [Example 42, 3,5-difluoro-4-((6-methyl-2-(methyl-d3)-7-phenyl-1H-imidazo[4,5-c]pyridin-1-yl)methyl)benzenesulfonamide]
10 to 100	1 to 10	COc1ncc2cnn(Cc3ccc(S(N)(=O)=O)cc3)c2c1-c1ccccc1 [Example 21, 4-((6-methoxy-7-phenyl-1H-pyrazolo[4,3-c]pyridin-1-yl)methyl)benzenesulfonamide]
< 1	< 1	Cc1ncc2nc(C)n(Cc3ccc(OS(N)(=O)=O)cc3)c2c1-c1ccccc1 [Example 37]
10 to 100	1 to 10	COc1ncc2ccn(Cc3ccc(S(N)(=O)=O)cc3)c2c1-c1ccn(C)n1 [Example 5, 4-((6-methoxy-7-(1-methyl-1H-pyrazol-3-yl)-1H-pyrrolo[3,2-c]pyridin-1-yl)methyl)benzenesulfonamide]
< 1	< 1	COc1ncc2nc(C)n(Cc3c(F)cc(S(N)(=O)=O)cc3F)c2c1-c1ccccc1 [Example 24, 3,5-difluoro-4-((6-methoxy-2-methyl-7-phenyl-1H-imidazo[4,5-c]pyridin-1-yl)methyl)benzenesulfonamide]
